Measured values: patent US12728147B2, “Composition for preventing or treating inflammatory disease comprising hydrolysis extract of pulsatilla koreana and anemone raddeana as active ingredient” (priority 2020, dated 2026)
Where two headings read alike, the source gives them in different places.

Columns and labels:
[1] = system: human umbilical vein endothelial cells (HUVECs); conditions: cited from earlier work
[2] = system: rats with edema induced with carrageenan; assay type: in vivo; conditions: for Average edema reduction percent: average of the reduction percent values after 2, 3 and 4 hours
Experimental: Each experimental group was composed of three Wistar rats, and the edema was formed by subplantar injection of 0.1 ml of a 1% (w/v) lambda carrageenan solution to the left hind paw of the rats. By the same method, 0.1 ml of physiological saline was injected into the right hind paw. […] For the control, 2 ml of physiological saline was used. As for Comparative Example 1, the group was orally administered with 10 mg/kg indomethacin. The medicinal effect was assayed as percentage (%) by measuring the volume of edema from 2 hours to 4 hours in 1 hour units after carrageenan administration. [{1−S/C}×100] (S: edema volume in the preparation administration group, C: edema volume in the carrageenan administration group) The volume of edema was measured by water plethysmography. As for Preparation 16, the anti-inflammatory effect was observed by direct injection of […] into the point of carrageenan injection on the rats. This method was used considering that in the vertebral skeletal diseases, drugs are often directly injected into affected areas in clinical practice, and the method can also be applied to the herbal acupuncture in oriental medicine. In the present invention, 0.2 ml of Preparation 14 was selected and directly injected twice at an interval of 30 minutes to the point of carrageenan injection on the left hind paw of the rats (Comparative Example 6). That is, the injection was conducted at 150 minutes and 180 minutes after carrageenan injection, and the anti-inflammatory assay was conducted 240 minutes (4 hours after carrageenan injection). Comparative Example 2 was a Preparation of 1 mg of HcolA1 mixed with 1 mg of HcolA. The control was used for a physiological saline administration group.
The edema size reduction percent (%) was expressed as the ratio of the edema size by each preparation after each hour relative to the size of edema (control) by carrageenan injection after each hour as shown below, and the average reduction percent of edema was expressed as an average value of the reduction percent values of each preparation after 2, 3, or 4 hours. Edema size reduction percent (%)={1−(edema size by each preparation/edema size by control)}×100

[3] = system: carrageenan-induced rat paw inflammation; conditions: literature report; cited from earlier work

COC1C(=O)Oc2ccccc2C1(COC(=O)C=C(C)C)OC (centres unmarked) [4-senecioyloxymethyl-3,4-dimethoxycoumarin]
Inhibition of HUVEC angiogenesis ([1]; at 1 μg/ml): 53%

COc1ccc2c(c1)c(CC(=O)O)c(C)n2C(=O)c1ccc(Cl)cc1 [Comparative Example 1, Indomethacin]
Edema size reduction percent, 2 hours ([2]; 2 hours after carrageenan, relative to control): 0.012(63) % | Edema size reduction percent, 3 hours ([2]; 3 hours after carrageenan, relative to control): 0.043(64) % | Edema size reduction percent, 4 hours ([2]; 4 hours after carrageenan, relative to control (Comparative Example 6: direct injection into point of carrageenan injection)): 0.023(63) % | Edema size over time (hour) after treatment, 4 hours ([2]; 4 hours after carrageenan, 1 ml i.p. 1 h before edema induction (Comparative Example 1 oral; Comparative Example 6: 0.2 ml injected directly twice at 150 and 180 min), mean): 0.321 | Average edema reduction percent [2]: (63.3) % | Average edema reduction percent ([2]; listed as indomethacin): 63.3%

C[C@@H]1O[C@@H](O[C@H]2[C@H](O[C@H]3CC[C@]4(C)[C@H]5CC=C6[C@@H]7CC(C)(C)CC[C@]7(C(=O)O[C@@H]7O[C@H](CO[C@@H]8O[C@H](CO)[C@@H](O[C@@H]9O[C@@H](C)[C@H](O)[C@@H](O)[C@H]9O)[C@H](O)[C@H]8O)[C@@H](O)[C@H](O)[C@H]7O)CC[C@@]6(C)[C@]5(C)CC[C@H]4C3(C)C)OC[C@H](O[C@@H]3O[C@H](CO)[C@@H](O)[C@H](O)[C@H]3O)[C@@H]2O)[C@H](O)[C@H](O)[C@H]1O [HcolE, hederacolchiside E]
Anti-inflammatory effect on carrageenan-induced rat paw inflammation [3]: insignificant

C[C@@H]1O[C@@H](O[C@H]2[C@H](O[C@H]3CC[C@@]4(C)[C@@H](CC[C@]5(C)[C@@H]4CC=C4[C@@H]6CC(C)(C)CC[C@]6(C(=O)O[C@@H]6O[C@H](CO[C@@H]7O[C@H](CO)[C@@H](O[C@@H]8O[C@@H](C)[C@H](O)[C@@H](O)[C@H]8O)[C@H](O)[C@H]7O)[C@@H](O)[C@H](O)[C@H]6O)CC[C@]45C)[C@]3(C)CO)OC[C@H](O[C@@H]3O[C@H](CO)[C@@H](O)[C@H](O)[C@H]3O)[C@@H]2O)[C@H](O)[C@H](O)[C@H]1O [HcolF, hederacolchiside F]
Anti-inflammatory effect on carrageenan-induced rat paw inflammation [3]: confirmed in a predetermined range

CCC[C@H](CC/C=C/C=C/C#CC#C/C=C\CO)OC(C)=O [acetylbupleurotoxin]
Inhibition of HUVEC angiogenesis ([1]; at a concentration of 30 μg/ml): 100%

CCC[C@H](O)CC/C=C/C=C/C#CC#C/C=C\CO [bupleurotoxin]
Inhibition of HUVEC angiogenesis ([1]; at a concentration of 30 μg/ml): 100%

COc1cc([C@@H]2c3cc4c(cc3C[C@H]3COC(=O)[C@@H]32)OCO4)cc(OC)c1OC [deoxypodophyllotoxin]
Inhibition of HUVEC angiogenesis ([1]; at a concentration of 3 ng/ml): 100%

C[C@@H]1O[C@@H](O[C@H]2[C@H](O[C@H]3CC[C@]4(C)[C@H]5CC=C6[C@@H]7CC(C)(C)CC[C@]7(C(=O)O)CC[C@@]6(C)[C@]5(C)CC[C@H]4C3(C)C)OC[C@H](O[C@@H]3O[C@H](CO)[C@@H](O)[C@H](O)[C@H]3O)[C@@H]2O)[C@H](O)[C@H](O)[C@H]1O [hederacolchiside A1]
Inhibition of HUVEC angiogenesis ([1]; at a concentration of 2 μg/ml): 100%

C[C@@H]1O[C@@H](O[C@H]2[C@H](O[C@H]3CC[C@@]4(C)[C@@H](CC[C@]5(C)[C@@H]4CC=C4[C@@H]6CC(C)(C)CC[C@]6(C(=O)O)CC[C@]45C)[C@]3(C)CO)OC[C@H](O[C@@H]3O[C@H](CO)[C@@H](O)[C@H](O)[C@H]3O)[C@@H]2O)[C@H](O)[C@H](O)[C@H]1O [hederacolchiside A]
Inhibition of HUVEC angiogenesis ([1]; at a concentration of 2 μg/ml): did not show such activity
